Key:
[1] = system: rat optic nerve derived OPCs; assay: High content imaging assay of OPC differentiation (MBP immunostaining, OPERA); type: cell-based; conditions: OPCs in differentiation medium (2 ng/ml PDGF), 6 days
Method: FIG. 1A-C. […] The calculated EC50 values were determined using appropriate Graphpad Prism 5.0 curve fitting software. […] OPCs were plated in 384 well plates at 1000 cells per well in OPC media containing basal PDGF-αα (2 ng/mL) and treated with serial dilutions of compounds. Following six days of compound treatment, cells were fixed and subjected to immunofluorescence analysis using anti-myelin basic protein (MBP) antibody. Image acquisition and quantification of MBP staining was performed using the OPERA imaging system.
FIG. 11A-B. Screen to identify inducers of OPC differentiation. (A) OPCs were maintained as proliferating A2B5-positive cells under basal growth conditions (Neurobasal medium, B27 supplement without Vitamin A, non-essential amino acids, L-Glutamine, 30 ng/ml PDGF). OPCs were plated in basal differentiation media (Neurobasal medium, B27 supplement without Vitamin A, non-essential amino acids, L-Glutamine, 2 ng/ml PDGF), treated with DMSO (<0.1%) or thyroid hormone (1 uM), fixed after 6 days in culture, and stained using antibodies for CNP, O4, or MBP. […] (B) Screen strategy using A2B5 positive OPCs cultured under basal differentiation conditions and treated with compounds for 6 days to identify small molecules that induce the differentiation of OPCs to mature, MBP expressing oligodendrocytes.
FIG. 12A-B. Primary hit confirmation. (A) Dose response assay used to confirm primary screening hits and determine potency (EC50). (EC50) is defined as the concentration that results in a half maximal increase in the percentage of total cells that express MBP as detected by immunostaining. […] Cells were fixed and immunostained using antibodies for MBP. Error bars represent standard deviations from 3 replicate experiments. […]
FIG. 21. […] OPCs were plated in differentiation medium (2 ng/ml PDGF) and treated with various concentrations of compounds for 6 days. Cells were fixed and immunostained for MBP.
A large-scale small molecule screen was conducted to identify small molecules that promote the differentiation of oligodendrocyte precursor cells (OPCs) to a mature myelinating fate. High content imaging was used to detect in-well differentiation of rat optic nerve derived OPCs. Rat optic nerve derived OPCs were expanded en masse in OPC media containing 30 ng/mL PDGFαα. To screen for small molecule inducers of OPC differentiation, OPCs (cultured for fewer than 15 passages) were plated in poly-D-lysine coated 384 well culture plates in OPC Media containing 2 ng/mL PDGFαα and immediately treated with compounds at a final concentration of 6 μM (0.6% DMSO). Compound treated cells were incubated at 37° C., 5% CO2 for 6 days. At the end of 6 days, cells were fixed in 4% paraformaldehyde and subjected to immunofluorescence analysis. Anti-Myelin Basic Protein monoclonal antibody (a.a. 129-138, clone 1 monoclonal antibody, Millipore) (1:1000 dilution) in blocking buffere solution (3% BSA, 0.3% Triton X-100 in PBS) was added to fixed and washed cells and incubated at 4° C. overnight.

[2] = system: muscarinic receptor; assay: Carbachol co-treatment in compound induced OPC differentiation (MBP staining); type: cell-based, rat; conditions: compounds at EC90 (benztropine 2.3 uM), serial dilutions of carbachol, 6 days
Method: (§1) Following 6 days of treatment, cells were fixed and stained for MBP. Plates were imaged using the OPERA high content screening system and MBP staining was quantified as described. […] OPCs were plated in 384-well plates at 5000 cells per well in media containing basal PDGF-αα. Cells were equilibrated with Ca^2+ sensitive Fluo-3AM® dye in HBSS for 30 min. […] Ca^2+ influx was immediately measured using the FLIPR TETRA® system.
OPCs express mAChRs, predominantly subtypes M1, M3, and M5 (F. Ragheb et al., J Neurochem, 77, 1396 (2001)). […] Activation of M1 and M3 mAChRs is coupled to downstream signal transduction events through phospholipase C, which results in increased intracellular calcium concentrations (F. Ragheb et al., J Neurochem, 77, 1396 (2001)) (FIG. 23C). M2 and M4 mAChR activation inhibits adenylatecyclase, leading to decreased intracellular cAMP levels (C. C. Felder, FASEB J, 9, 619 (1995); M. Lopez-Ilasaca et al., Science, 275, 394 (1997)). […] Acetylcholine is a known regulator of OPC proliferation and, as such, muscarinic receptor subtypes represent a reasonable class of therapeutic targets for the modulation of OPC proliferation and differentiation (F. De Angelis et al., Dev Neurobiol, (2011)).

[3] = system: OPCs; assay: Immunofluorescence analysis of mature oligodendrocyte markers (MBP, MOG, CNP, GalC, O1, O4); type: cell-based, rat; conditions: OPCs treated 6 days
From the text: FIG. 3. Immunofluorescence analysis of compound treated OPCs using mature oligodendrocyte specific markers. Immunofluorescence staining using specific antibodies for MBP, MOG, and 2′,3′-cyclic nucleotide 3′ phosphodiesterase (CNP). Nuclei were identified using DAPI.
FIG. 4. Immunofluorescence analysis of compound treated OPCs using mature oligodendrocyte specific markers. Immunofluorescence staining using specific antibodies for galactocereberoside (GalC), oligodendrocyte marker O1 (O1) and oligodendrocyte marker O4 (O4). Nuclei were identified using DAPI.
FIG. 14. Compound treatment induces the differentiation of OPCs to mature oligodendrocytes. […] Cells were fixed and immunostained for MBP, MOG, CNP, GalC, O1, or O4.
Immunofluorescence was also used to confirm that the hits were able to induce oligodendrocyte maturation.

[4] = system: M1/M3 muscarinic receptors
Method: as §1
(A-C) OPCs were plated in differentiation media for 12 hours. […] (C) Atropine, a muscarinic antagonist, serves as a positive control. (D) OPCs were plated in differentiation medium for 12 hours. A cAMP-HTRF assay was performed using the cAMP dynamic 2 kit. […] IBMX was added as a cAMP stabilizer, and forskolin was a positive control.

[5] = system: OPCs; assay: qRT-PCR of MBP and MOG expression in compound treated OPCs; type: cell-based, rat; conditions: EC90 concentrations, 6 days
From the text: FIG. 2A-C. […] (A) Western blot analysis of OPCs treated with compounds at EC90 concentrations for 6 days. Total protein was isolated from cell pellets and probed for myelin basic protein (MBP) and myelin oligodendrocyte glycoprotein (MOG) using specific antibodies. (B-C) Quantitative RT-PCR (qRT-PCR) analysis of OPCs treated with compounds at EC90 concentrations for 6 days. Total RNA was isolated from cell pellets and reverse transcribed. MBP and MOG expression was quantified using specific probes and Taqman-based qRT-PCR. Expression was normalized to the internal controls β-actin and GAPDH. Fold change in gene expression over DMSO treated control cells is plotted for MBP (B) and MOG (C).

[6] = system: OPCs; assay: Western blot of MBP and MOG in compound treated OPCs; type: cell-based, rat; conditions: OPCs treated 6 days
From the text: FIG. 2A-C. Neurotransmitter receptor modulating agents induce the differentiation of OPCs to a myelinating oligodendrocyte cell fate. (A) Western blot analysis of OPCs treated with compounds at EC90 concentrations for 6 days. Total protein was isolated from cell pellets and probed for myelin basic protein (MBP) and myelin oligodendrocyte glycoprotein (MOG) using specific antibodies. (B-C) Quantitative RT-PCR (qRT-PCR) analysis of OPCs treated with compounds at EC90 concentrations for 6 days. Total RNA was isolated from cell pellets and reverse transcribed. MBP and MOG expression was quantified using specific probes and Taqman-based qRT-PCR. Expression was normalized to the internal controls β-actin and GAPDH. Fold change in gene expression over DMSO treated control cells is plotted for MBP (B) and MOG (C).
FIG. 13. […] After 6 days in culture, cells were analyzed for MBP and MOG expression by Western blot.

SMILES: CCN(CC)CCOCCOC(=O)C1(c2ccccc2)CCCC1 [carbetapentane]
- induction of OPC differentiation (MBP staining) [1]: promote OPC differentiation
- effect of carbachol on compound induced OPC differentiation [2]: inhibited
- effect of carbachol on compound induced OPC differentiation ([2]; listed as carbapentane): dose dependent inhibition
- markers of mature myelinating oligodendrocytes (MBP, MOG, CNP, GalC, O1, O4) by immunofluorescence [3]: confirmed the presence of multiple markers of mature myelinating oligodendrocytes
- effect on carbachol induced Ca2+ influx [4]: inhibit
- induction of MBP expression (qRT-PCR) over DMSO [5]: two-fold
- induction of MOG expression (qRT-PCR) over DMSO [5]: two-fold
- MBP and MOG expression (Western blot) [6]: positive

— patent US11246873B2, “Directed differentiation of oligodendrocyte precursor cells to a myelinating cell fate” (The Scripps Research Institute, priority 2011, dated 2022)
